26 compounds from ChEMBL document CHEMBL1133071, “Potent in vitro methicillin-resistant Staphylococcus aureus activity of 2-(1H-indol-3-yl)quinoline derivatives” (2000) can be followed below.

Converted amounts (≈) assume the structure as drawn.

Holding throughout (type): functional
For one assay, the system named is Enterococcus faecium. The assay is described as follows: Minimum inhibitory concentration against vancomycin resistant Enterococcus faecium (VRE).
Assay [1] concerns Staphylococcus aureus. Description: Minimum inhibitory concentration against methicillin resistant staphylococcus aureus (MRSA).
The test system of assay [2] is Staphylococcus aureus. Description: The compound was evaluated in vitro for minimum inhibitory concentration against staphylococcus aureus HP-5836.
The subject of assay [3] is Staphylococcus aureus. Description: The compound was evaluated in vitro for minimum inhibitory concentration against staphylococcus aureus HP-5827.

By MIC is commonly meant the lowest concentration found to suppress growth. A lower MIC goes with inhibition by little substance. As to `Clc1ccc2ccc(-c3c[nH]c4ccc(Br)cc34)nc2c1`, the MIC in the assay with Enterococcus faecium is over 25 µg/mL; in the assay with Staphylococcus aureus [1], 0.6 µg/mL (≈ 1.68 µM).

With `NCCNC(=O)c1cc(-c2c[nH]c3ccc(Br)cc23)nc2ccc(Cl)cc12.O=C(O)C(F)(F)F`, the figures for the minimal inhibitory concentration (MIC) in the assay on Enterococcus faecium and with Staphylococcus aureus [1] were 3.13 µg/mL and 1.56 µg/mL, respectively.

Turning to `Clc1ccc2c(Cl)cc(-c3c[nH]c4ccc(Br)cc34)nc2c1`, the values for the MIC with Enterococcus faecium and against Staphylococcus aureus [1] were 3.13 µg/mL (≈ 7.98 µM) and under 0.39 µg/mL, respectively.

Consider `Clc1ccc2nc(-c3c[nH]c4ccccc34)ccc2c1`, for which the MIC in the assay on Enterococcus faecium was over 25 µg/mL; with Staphylococcus aureus [1] it was 5 µg/mL (≈ 17.9 µM).

With `Oc1ccc2[nH]cc(-c3ccc4cc(Cl)ccc4n3)c2c1`, the MIC against Enterococcus faecium is over 25 µg/mL; in the assay with Staphylococcus aureus [1], 12.5 µg/mL (≈ 42.4 µM).

In the case of `Clc1ccc2nc(-c3c[nH]c4c(Cl)cccc34)ccc2c1`, the MIC against Enterococcus faecium and with Staphylococcus aureus [1] was over 25 µg/mL throughout.

For `OCc1cc(-c2c[nH]c3ccc(Br)cc23)nc2cc(Cl)ccc12`, the values for the MIC with Enterococcus faecium and in the assay with Staphylococcus aureus [1] were 2.5 µg/mL (≈ 6.45 µM) and 0.31 µg/mL (≈ 0.8 µM), respectively.

Consider `Clc1ccc2nc(-c3c[nH]c4ccc(Cl)cc34)ccc2c1`, for which the MIC was over 25 µg/mL in the assay with Enterococcus faecium and 0.78 µg/mL (≈ 2.49 µM) with Staphylococcus aureus [1].

`NCCNC(=O)c1cc(-c2c[nH]c3ccc(Br)cc23)nc2c(Cl)cccc12.O=C(O)C(F)(F)F`: the values for the MIC in the assay on Enterococcus faecium and in the assay on Staphylococcus aureus [1] were 3.13 µg/mL and 1.56 µg/mL, respectively.

For `O=C(Oc1ccc2[nH]cc(-c3ccc4cc(Cl)ccc4n3)c2c1)c1ccccc1`, the MIC against Enterococcus faecium was over 25 µg/mL; in the assay with Staphylococcus aureus [1], 1.56 µg/mL (≈ 3.91 µM).

Turning to `NCCNC(=O)c1cc(-c2c[nH]c3ccc(Br)cc23)nc2cc(Cl)cc(Cl)c12.O=C(O)C(F)(F)F`, the MIC with Enterococcus faecium came to 1.56 µg/mL; with Staphylococcus aureus [1], 0.78 µg/mL.

Regarding `NCCNC(=O)c1cc(-c2c[nH]c3ccc(Br)cc23)nc2cc(Cl)c(C#CCN3CCCCC3)cc12.O=C(O)C(F)(F)F`, the MIC in the assay on Enterococcus faecium was determined as 6.25 µg/mL; in the assay with Staphylococcus aureus [1], 3.13 µg/mL; in the assay on Staphylococcus aureus [2], 3.13 µg/mL; in the assay with Staphylococcus aureus [3], 1.56 µg/mL.

As for `NCc1cc(-c2c[nH]c3ccc(Br)cc23)nc2cc(Cl)ccc12.O=C(O)C(F)(F)F`, the MIC in the assay on Enterococcus faecium worked out at 1.56 µg/mL; against Staphylococcus aureus [1], 0.78 µg/mL; against Staphylococcus aureus [2], 0.39 µg/mL; in the assay on Staphylococcus aureus [3], 0.39 µg/mL.

In turn, `NCCNC(=O)c1cc(-c2c[nH]c3ccc(Br)cc23)nc2cc3c(cc12)OCO3.O=C(O)C(F)(F)F` displayed an MIC with Staphylococcus aureus [1] of 12.5 µg/mL.

As to `Clc1ccc2nc(-c3c[nH]c4ccc(Br)cc34)ccc2c1`, the MIC against Enterococcus faecium is over 25 µg/mL; in the assay with Staphylococcus aureus [1] it was 0.62 µg/mL (≈ 1.73 µM).

In the case of `COc1ccc2[nH]cc(-c3ccc4cc(Cl)ccc4n3)c2c1`, the MIC in the assay on Enterococcus faecium and in the assay on Staphylococcus aureus [1] was over 25 µg/mL each time.

As for `NCCNC(=O)c1cc(-c2c[nH]c3ccc(Br)cc23)nc2ccccc12.O=C(O)C(F)(F)F`, the minimum inhibitory concentration (MIC) in the assay with Enterococcus faecium was determined as 25 µg/mL; in the assay with Staphylococcus aureus [1], 12.5 µg/mL.

Take `NCCNC(=O)c1cc(-c2c[nH]c3ccc(Br)cc23)nc2c(Cl)c(Cl)ccc12.O=C(O)C(F)(F)F`: the MIC in the assay with Enterococcus faecium and in the assay on Staphylococcus aureus [1] was 0.78 µg/mL throughout.

For `Fc1ccc2[nH]cc(-c3ccc4cc(Cl)ccc4n3)c2c1`, the MIC in the assay with Enterococcus faecium turned out to be 12.5 µg/mL (≈ 42.1 µM); with Staphylococcus aureus [1], 0.78 µg/mL (≈ 2.63 µM).

In the case of `Fc1ccc2c(-c3ccc4cc(Cl)ccc4n3)c[nH]c2c1`, the MIC is 6.25 µg/mL (≈ 21.1 µM) with Enterococcus faecium and 1.56 µg/mL (≈ 5.26 µM) against Staphylococcus aureus [1].

As for `NCCNC(=O)c1cc(-c2c[nH]c3ccc(Br)cc23)nc2cc(Cl)ccc12.O=C(O)C(F)(F)F`, the MIC against Enterococcus faecium was found to be 1.56 µg/mL; in the assay with Staphylococcus aureus [1], 0.78 µg/mL; in the assay with Staphylococcus aureus [2] it was 0.39 µg/mL; against Staphylococcus aureus [3], 0.78 µg/mL.

Take `O=C(O)c1cc(-c2c[nH]c3ccc(Br)cc23)nc2cc(Cl)ccc12`: the MIC in the assay with Enterococcus faecium and with Staphylococcus aureus [1] was 25 µg/mL (≈ 62.2 µM) in each case.

As for `N#Cc1ccc2[nH]cc(-c3ccc4cc(Cl)ccc4n3)c2c1`, the MIC in the assay on Enterococcus faecium and in the assay on Staphylococcus aureus [1] was over 25 µg/mL in each case.

`NCCNC(=O)c1cc(-c2c[nH]c3ccc(Br)cc23)nc2c(F)cccc12.O=C(O)C(F)(F)F`: the MIC against Enterococcus faecium was found to be 12.5 µg/mL; with Staphylococcus aureus [1], 6.25 µg/mL.

Take `NCCNC(=O)c1cc(-c2c[nH]c3ccc(Br)cc23)nc2cc(F)ccc12.O=C(O)C(F)(F)F`: the MIC in the assay with Enterococcus faecium and in the assay on Staphylococcus aureus [1] was 3.13 µg/mL throughout.

Take `Fc1cccc2[nH]cc(-c3ccc4cc(Cl)ccc4n3)c12`: the MIC with Enterococcus faecium and with Staphylococcus aureus [1] was over 25 µg/mL throughout.
